Assay [1] relates to SARS-CoV-2 live virus. The assay is described as follows: microbe, parasite or virus in culture. In kind it is cell-based.
In assay [2] the test system is SARS-CoV-2 PP entry into HEK293-ACE2 cells. The assay is described as follows: microbe, parasite or virus in culture. In kind it is cell-based.
Assay [3] deals with T1, SARS-CoV-2 3CL protease (Severe acute respiratory syndrome coronavirus 2, UniProt P0DTD1). In kind it is biochemical. To be noted: read-out: IC50, 3CL protease assay.
In assay [4] the target is T1, SARS-CoV-2 3CL protease. To be noted: read-out: IC50, 3CL protease; finding of Sun et al.; cited from earlier work.
Setting [5] is: read-out: AC50 (potency), CPE assay.
[6] abbreviates: Severe acute respiratory syndrome coronavirus 2, read-out: IC50, PP entry assay.
The mark [7] stands for this setting: Severe acute respiratory syndrome coronavirus 2, read-out: AC50 (potency), CPE assay.

One may read the AC50 as the concentration at which the activity in the assay is half-maximal. The term IC50 denotes the concentration that inhibits the measured activity by half.

The structures appear in SMILES notation. Like-named read-outs stand apart in the source and are kept apart here. Peptide text beside a SMILES is read from it. * marks the point of attachment. Cbz = O=C(OCc1ccccc1)*; CH2F = FC*

As to `CCN(CC)CCCCNc1nc2cc(Cl)c(Cl)cc2nc1-c1ccc(-c2cccs2)s1` [NCGC00263128, PD 0220245], the AC50 in assay [1] (setting [5]) is less than 5 µM.

Take `Nc1nc(Nc2ccc3c(c2)CC[C@@H](N2CCCC2)CC3)nn1-c1cc2c(nn1)-c1ccccc1CCC2` [NCGC00386665, Bemcentinib]: the “efficacy, PP entry assay” value in assay [2] came to 112%. For the same compound, the 50% inhibitory concentration (IC50) in assay [2] (setting [6]) amounted to 19 µM. In addition, the concentration at half-maximal activity (AC50) in assay [1] (setting [7]) was 3.36 µM.

As for `OC(c1cc(-c2ccc(Cl)cc2)nc2ccccc12)C1CCCCN1` (centres unmarked) [NCGC00482724, Vacquinol-1], in assay [1] (setting [5]), the half-maximal activity concentration (AC50) was less than 5 µM.

Turning to `CCN(CC)Cc1cc(Nc2ccnc3cc(Cl)ccc23)ccc1O` [NCGC00017063, Amodiaquine], the “efficacy, PP entry assay” value in assay [2] amounted to 103%. In addition, the IC50 in assay [2] (setting [6]) was found to be 19 µM. Besides, in assay [1] (setting [7]), the AC50 is 4.14 ± 1.41 µM.

With `C=C(c1ccc(C(=O)O)c(F)c1)c1cc2c(cc1C)C(C)(C)CCC2(C)C` [NCGC00371011, Fluorobexarotene], the concentration for half-maximal inhibition (IC50) in assay [3] is 28.9 ± 2.35 µM.

As for `CCN(CC)CCCNc1ccnc2cc(Cl)ccc12` [NCGC00599688, AQ-13], the 50% inhibitory concentration (IC50) in assay [2] (read-out: IC50, PP entry assay) was 14.2 ± 11.7 µM. Besides, the AC50 in assay [1] (setting [5]) stood at 3.98 µM.

As to `COc1ccc(-c2cc3c(nc2-c2ccccc2)nc(C(=O)NCCN(C)C)n3C)cn1` [NCGC00417833], the AC50 in assay [1] (setting [5]) was determined as 22 µM.

For the compound `COc1ccc2cc1Oc1ccc(cc1)C[C@H]1c3c(cc4c(c3Oc3cc5c(cc3OC)CCN(C)[C@@H]5C2)OCO4)CCN1C` [NCGC00161621, Cepharanthine], the “efficacy, PP entry assay” value in assay [2] was 102%. Besides, in assay [2] (setting [6]), the IC50 was determined as 6.88 µM. Besides, the AC50 in assay [1] (setting [7]) was 1.41 ± 0.39 µM.

`COC(=O)C[C@H](NC(=O)[C@H](CCSC)NC(=O)[C@H](CCC(N)=O)NC(=O)[C@H](CC(=O)OC)NC(=O)OCc1ccccc1)C(=O)CF` [NCGC00390337, Z-DQMD-FMK] (Cbz-D(OMe)QMD(OMe)-CH2F): the half-maximal inhibitory concentration (IC50) in assay [4] is 0.94 µM; in assay [3] it was 0.92 µM.

Regarding `CC[C@@]1(O)C(=O)OCc2c1cc1n(c2=O)Cc2c-1nc1cc(F)c(C)c3c1c2[C@@H](N)CC3` [NCGC00390584, Exatecan], the half-inhibitory concentration (IC50) in assay [2] (setting [6]) was determined as 0.0031 µM.

With `COc1ccc(C(C)(C)C)cc1CN[C@H]1C2CCN(CC2)[C@H]1C(c1ccccc1)c1ccccc1` [NCGC00390625, Maropitant], the AC50 in assay [1] (setting [5]) was found to be 3.55 ± 1.12 µM.

For `O=C(NCc1ccccc1)[C@H](Cc1ccccc1)NC(=O)[C@H]1O[C@@H]1C(=O)NCCc1ccc(O)cc1` [NCGC00345807, CAA-0225], the “efficacy, PP entry assay” value in assay [2] is 89%. The IC50 in assay [2] (read-out: IC50, PP entry assay) stood at 0.6 µM. Further, the half-maximal activity concentration (AC50) in assay [1] (setting [5]) was 0.2 ± 0.07 µM.

In the case of `CCCc1cc(C)[nH]c(=O)c1CNC(=O)c1cc(-c2ccc(N3CCN(C)CC3)nc2)nc2c1cnn2C(C)C` [NCGC00590975, JQEZ5], the concentration at half-maximal activity (AC50) in assay [1] (setting [5]) was less than 5 µM.
